{"source": "patent US11731964B2", "about": "“Benzamide antibacterial agents” (Purdue Research Foundation, priority 2018, dated 2023)", "key": {"[1]": {"system": "human colorectal (Caco-2) cells", "assay": "Toxicity profile, MTS viability assay", "format": "cell-based", "settings": "24 hours, tested 2 to 256 μg/mL", "method": "(§1) Compound F6 was assayed (at concentrations ranging from 2 μg/mL to 256 μg/mL) against murine macrophage (J774) and human colorectal (Caco-2) epithelial cell lines to determine the potential toxic effect to mammalian cells in vitro. Caco-2 cells were cultured in Dulbecco's Modified Eagle Medium (DMEM) supplemented with 20% fetal bovine serum (FBS), non-essential amino acids (1×), and penicillin-streptomycin at 37° C. with CO2 (5%). J774 cells were cultured in DMEM supplemented with 10% FBS. Upon reaching 85-90% confluency, cells were transferred to all wells of a 96-well tissue-culture treated plate. The cells were incubated in serum-free medium with the compounds (in triplicate) at 37° C. with CO2 (5%) for 24 hours. Cells exposed to equivalent concentrations of DMSO served as the negative control. The assay reagent MTS 3-(4,5-dimethylthiazol-2-yl)-5-(3-carboxymethoxyphenyl)-2-(4-sulfophenyl)-2H-tetrazolium) (Promega, Madison, Wis., USA) was subsequently added and the plate was incubated for four hours. Absorbance readings (at OD490) were taken using a kinetic microplate reader (Molecular Devices, Sunnyvale, Calif., USA). The quantity of viable cells after treatment with each compound was expressed as a percentage of the viability of DMSO-treated control cells (average of triplicate wells±standard deviation). The toxicity data were analyzed via a two-way ANOVA, with post hoc Sidak's multiple comparisons test (P<0.05), utilizing GraphPad Prism 6.0 (GraphPad Software, La Jolla, Calif., USA)."}, "[2]": {"system": "murine macrophage (J774) cells", "assay": "Toxicity profile, MTS viability assay", "format": "cell-based", "method": "as §1"}, "E. faecalis ATCC 29212": {"system": "E. faecalis ATCC 29212", "assay": "MIC, broth microdilution", "format": "cell-based", "settings": "Enterococcus faecalis, ATCC29212; E. faecalis ATCC 29212; read-out: MIC", "procedure,_shortened": "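Incubate bacteria with compound, 37° C, ≥20 h, in CA-MHB, TSB or BHI (E. faecium) as assigned per strain; score MIC visually. Spot 4 μL of clear wells on TSA, incubate ≥18 h at 37° C, record MBC.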"}, "[3]": {"system": "Escherichia coli JW5503-1 (ΔtolC)", "assay": "MIC against Gram-negative pathogens (efflux pump knockout)", "format": "cell-based", "method": "(§2) Bacteria were cultured in cation-adjusted Mueller Hinton Broth (for strains in Tables 1 and 4) or Brain Heart Infusion broth (for Enterococcus faecium) or Tryptic Soy Broth (all other bacteria) in a 96-well plate at 37° C. for at least 20 hours. The MIC was classified as the lowest concentration where no visual growth of bacteria was observed. The minimum bactericidal concentration (MBC) was tested by spotting 4 μL from wells with no growth onto Tryptic Soy Agar (TSA) plates. Plates were incubated at 37° C. for at least 18 hours before recording the MBC."}, "MRSA NRS123 (USA400)": {"system": "MRSA NRS123 (USA400)", "assay": "MIC and MBC", "format": "cell-based", "settings": "Staphylococcus aureus, MRSA NRS123 (USA400)", "method": "as §2"}, "MRSA NRS386 (USA700)": {"system": "MRSA NRS386 (USA700)", "assay": "MIC and MBC", "format": "cell-based", "settings": "Staphylococcus aureus, MRSA NRS386 (USA700)", "method": "as §2"}, "MRSA NRS385 (USA500)": {"system": "MRSA NRS385 (USA500)", "assay": "MIC and MBC", "format": "cell-based", "settings": "Staphylococcus aureus, MRSA NRS385 (USA500)", "method": "as §2"}, "MRSA NRS387 (USA800)": {"system": "MRSA NRS387 (USA800)", "assay": "MIC and MBC", "format": "cell-based", "settings": "Staphylococcus aureus, MRSA NRS387 (USA800)", "method": "as §2"}, "MRSA NRS384 (USA300)": {"system": "MRSA NRS384 (USA300)", "assay": "MIC and MBC", "format": "cell-based", "settings": "Staphylococcus aureus, MRSA NRS384 (USA300)", "method": "as §2"}, "E. faecium ATCC": {"system": "E. faecium ATCC", "assay": "MIC and MBC", "format": "cell-based", "settings": "Enterococcus faecium, E. faecium ATCC", "method": "as §2"}, "MRSA NRS119": {"system": "MRSA NRS119", "assay": "MIC and MBC", "format": "cell-based, Staphylococcus aureus", "settings": "Staphylococcus aureus, MRSA NRS119", "method": "as §2"}, "S. aureus": {"system": "S. aureus", "assay": "Screening of compounds for growth inhibition of S. aureus at 16 μg/mL (OD600)", "format": "cell-based", "settings": "compound at 16 μg/mL, 24 hours, compared to DMSO control", "method": "Library compounds and analogs of F6 were dissolved in DMSO at 10 mg/mL. S. aureus was cultured in Mueller Hinton Broth to early exponential phase at which point culture aliquots were incubated with compounds at 16 μg/mL or DMSO in duplicates. The culture was continued at 37° C. for 24 hours. Aliquots (100 μL) of the cultures were dispensed into clear 96 well microtiter plates and OD600 was recorded. Percent normalized OD600 was obtained by using the equation [formula] wherein for a given compound, X is the OD600 of culture with the compound, Xo is that of media only and XT is the OD600 of the DMSO control."}, "MRSA USA400 (NRS123)": {"system": "MRSA USA400 (NRS123)", "format": "cell-based, Staphylococcus aureus", "description": "Resistance was classified as a greater than four-fold increase in the initial MIC, as reported elsewhere^30 (Farrell D J, Robbins M, Rhys-Williams W, Love W G. Investigation of the potential for mutational resistance to XF-73, retapamulin, mupirocin, fusidic acid, daptomycin, and vancomycin in methicillin-resistant Staphylococcus aureus isolates during a 55-passage study. Antimicrob Agents Chemother. 2011; 55(3):1177-81)."}, "VRSA VRS12": {"system": "VRSA VRS12", "assay": "MIC and MBC", "format": "cell-based, S. aureus", "settings": "Staphylococcus aureus, VRSA VRS12", "method": "as §2"}, "VISA NRS1": {"system": "VISA NRS1", "assay": "MIC and MBC", "format": "cell-based, S. aureus", "settings": "Staphylococcus aureus, VISA NRS1", "method": "as §2"}, "MRSA USA300": {"system": "MRSA USA300", "assay": "Time-kill analysis", "format": "cell-based, Staphylococcus aureus", "method": "The time-kill analysis was performed as previously described^29. […] Aliquots (100 μL) were collected from each treatment after 0, 2, 4, 8, 12, and 24 hours of incubation at 37° C. and subsequently serially diluted in phosphate-buffered saline (PBS). Bacteria were then transferred to TSA plates and incubated at 37° C. for 18-20 hours before viable CFU/mL was determined."}}}
{"smiles": "CC1CC(C)CN(S(=O)(=O)c2ccc(C(=O)Nc3nnc(-c4cccs4)o3)cc2)C1", "note": "(centres unmarked) [Compound F6]", "values": [{"measurement": "concentration up to which non-toxic", "setting": "[1]", "result": "up to 128 μg/mL"}, {"measurement": "concentration up to which non-toxic", "setting": "[2]; J774 cells, 24 hours, tested 2 to 256 μg/mL", "result": "up to 128 μg/mL"}, {"measurement": "non-toxic concentration, fold higher than the MIC of F6 against MRSA", "setting": "[2]; mouse and human, 24 h", "result": 63, "unit": "fold"}, {"measurement": "MIC", "setting": "E. faecalis ATCC 29212", "result": 4, "unit": "µg/mL"}, {"measurement": "MIC", "setting": "[3]", "result": 2, "unit": "µg/mL"}, {"measurement": "MBC", "setting": "MRSA NRS123 (USA400); read-out: MBC", "result": "> 128", "unit": "µg/mL"}, {"measurement": "MIC", "setting": "MRSA NRS123 (USA400); read-out: MIC", "result": 2, "unit": "µg/mL"}, {"measurement": "MBC", "setting": "MRSA NRS386 (USA700); read-out: MBC", "result": "> 128", "unit": "µg/mL"}, {"measurement": "MIC", "setting": "MRSA NRS386 (USA700); read-out: MIC", "result": 2, "unit": "µg/mL"}, {"measurement": "MBC", "setting": "MRSA NRS385 (USA500); read-out: MBC", "result": "> 128", "unit": "µg/mL"}, {"measurement": "MIC", "setting": "MRSA NRS385 (USA500); read-out: MIC", "result": 2, "unit": "µg/mL"}, {"measurement": "MBC", "setting": "MRSA NRS387 (USA800); read-out: MBC", "result": "> 128", "unit": "µg/mL"}, {"measurement": "MIC", "setting": "MRSA NRS387 (USA800); read-out: MIC", "result": 2, "unit": "µg/mL"}, {"measurement": "MBC", "setting": "MRSA NRS384 (USA300); read-out: MBC", "result": "> 128", "unit": "µg/mL"}, {"measurement": "MIC", "setting": "MRSA NRS384 (USA300); read-out: MIC", "result": 2, "unit": "µg/mL"}, {"measurement": "MBC", "setting": "E. faecium ATCC; read-out: MBC", "result": 128, "unit": "µg/mL"}, {"measurement": "MIC", "setting": "E. faecium ATCC; read-out: MIC", "result": 2, "unit": "µg/mL"}, {"measurement": "MBC", "setting": "MRSA NRS119; read-out: MBC", "result": "> 128", "unit": "µg/mL"}, {"measurement": "MIC", "setting": "MRSA NRS119; read-out: MIC", "result": 2, "unit": "µg/mL"}, {"measurement": "inhibition of growth of S. aureus", "setting": "S. aureus", "result": "significantly inhibited the growth"}, {"measurement": "increase in MIC after the tenth passage", "setting": "MRSA USA400 (NRS123); MRSA USA400", "result": "one-fold increase"}, {"measurement": "increase in MIC by the 14th passage from the original MIC", "setting": "MRSA USA400 (NRS123); MRSA USA400", "result": "no additional increase in MIC"}, {"measurement": "change in MIC over nine passages", "setting": "MRSA USA400 (NRS123); MRSA USA400, passages 1-9", "result": "remained unchanged"}, {"measurement": "MBC", "setting": "VRSA VRS12; read-out: MBC", "result": "> 128", "unit": "µg/mL"}, {"measurement": "MIC", "setting": "VRSA VRS12; read-out: MIC", "result": 2, "unit": "µg/mL"}, {"measurement": "MBC", "setting": "VISA NRS1; read-out: MBC", "result": "> 128", "unit": "µg/mL"}, {"measurement": "MIC", "setting": "VISA NRS1; read-out: MIC", "result": 2, "unit": "µg/mL"}, {"measurement": "reduction in MRSA USA300 (time-kill)", "setting": "MRSA USA300; 3×MIC, after a 24-hour incubation period", "result": 2.42, "unit": "log10"}, {"measurement": "in vitro effect against MRSA USA300", "setting": "MRSA USA300; time-kill analysis and MBC", "result": "bacteriostatic"}]}
